The text below walks through data of ChEMBL document CHEMBL4619751, “Synthesis of novel spirobibenzopyrans as potent anticancer leads inducing apoptosis in HeLa cells” (Bioorg Med Chem Lett, 2020).

For experiment [1], the system named is HeLa. Briefly: Induction of DNA damage in human HeLa cells assessed as inhibition of DNA replication. The experiment is classed as functional, cell-based.
Experiment [2] has as its system HeLa. Description: Induction of DNA damage in human HeLa cells assessed as tail DNA formation at IC50 by alkaline Comet assay. The experiment is classed as functional.
In experiment [3] the test system is HeLa. Description: Cell cycle arrest in human HeLa cells assessed as accumulation at S phase at 10 uM measured after 48 hrs by FACS analysis. It is filed as functional, cell-based. For orientation: A flow cytometer gives signals particle by particle.
Experiment [4] deals with HeLa. Description: Cell cycle arrest in human HeLa cells assessed as accumulation at sub G0/G1 phase at 10 uM measured after 48 hrs by FACS analysis. The experiment is classed as functional, cell-based.
Experiment [5] deals with HeLa. Briefly: Induction of apoptosis in human HeLa cells assessed as chromatin condensation by acridine oranga/ethidium bromide staining based assay. It is filed as functional, cell-based.
In experiment [6] the test system is HeLa. Briefly: Cytotoxicity against human HeLa cells assessed as growth inhibition by MTT assay. It is filed as functional, cell-based. A general note: Tetrazolium assays rely on reduction of a dye to a coloured formazan, in cell work by metabolically active cells.
Experiment [7] concerns HeLa. Description: Cytotoxicity against human HeLa cells assessed as cell proliferation at 10 uM by MTT assay relative to control. It is filed as functional. Particulars: read-out: Activity.
The subject of experiment [8] is HeLa. Description: Cell cycle arrest in human HeLa cells assessed as accumulation at S phase at 50 uM measured after 48 hrs by FACS analysis. The experiment is classed as functional, cell-based.
Experiment [9] deals with HeLa. Briefly: Cell cycle arrest in human HeLa cells assessed as accumulation at sub G0/G1 phase at 50 uM measured after 48 hrs by FACS analysis. It is filed as functional, cell-based.
The test system of experiment [10] is HeLa. Briefly: Cell cycle arrest in human HeLa cells assessed as accumulation at middle G0/G1 phase at 10 uM measured after 48 hrs by FACS analysis. It is filed as functional, cell-based.
For experiment [11], the system named is HeLa. Description: Induction of apoptosis in human HeLa cells assessed as nuclear fragmentation by acridine oranga/ethidium bromide staining based assay. It is filed as functional, cell-based.
Experiment [12] relates to HeLa. Briefly: Cell cycle arrest in human HeLa cells assessed as accumulation at early G0/G1 phase at 10 uM measured after 48 hrs by FACS analysis. It is filed as functional, cell-based.

Activity calls are given as the source filed them. The rule behind the calls is not given here.

Usually IC50 stands for the concentration that inhibits the measured activity by half. Consider `COc1ccc2c(c1)OC13Oc4cc(OC)ccc4C=C1CCCC3=C2`, for which the outcome in experiment [1], in [3], in experiment [4] and in [5] was Active. Further, the Activity in experiment [2] is reported as 3.32 um. In addition, the IC50 in experiment [6] is 13.6 µM. Moreover, the growth at 10 µM in experiment [7] came to 62.1%.
Turning to `COc1ccc2c(c1)C=C1CCCC3=Cc4cc(OC)ccc4OC13O2`, the outcome in [8] and in experiment [9] was inactive. Moreover, the result in experiment [3], in experiment [4], in experiment [10] and in experiment [11] was Active. For the same compound, the IC50 in experiment [6] turned out to be 10.7 µM. In addition, the growth at 10 µM in experiment [7] stood at 46.6%.
Turning to `Clc1ccc2c(c1)C=C1CSCC3=Cc4cc(Cl)ccc4OC13O2`, the growth at 10 µM in [7] was 105%.
On to `Clc1cc(Cl)c2c(c1)C=C1CCCCC3=Cc4cc(Cl)cc(Cl)c4OC13O2`, for which, in [7], the growth at 10 µM amounted to 102%.
Consider `C1=C2CCCCC3=Cc4ccccc4OC23Oc2ccccc21`, for which the growth at 10 µM in [7] amounted to 80.2%.
With `Clc1ccc2c(c1)C=C1CCCC3=Cc4cc(Cl)ccc4OC13O2`, the growth at 10 µM in [7] was 105%.
Turning to `Clc1ccc2c(c1)C=C1CCCCC3=Cc4cc(Cl)ccc4OC13O2`, the growth at 10 µM in [7] amounted to 90.1%.
In the case of `Brc1ccc2c(c1)C=C1CCCCC3=Cc4cc(Br)ccc4OC13O2`, the growth at 10 µM in experiment [7] turned out to be 111%.
In the case of `COc1ccc2c(c1)OC13Oc4cc(OC)ccc4C=C1CCCCC3=C2`, the growth at 10 µM in experiment [7] was determined as 108%.
As to `COc1ccc2c(c1)C=C1CCCCC3=Cc4cc(OC)ccc4OC13O2`, the result in experiment [4], in [12] and in [11] was Active. Moreover, the IC50 in [6] is 12.2 µM. In addition, in experiment [7], the growth at 10 µM worked out at 59.3%.
As for `C1=C2CCCC3=Cc4ccccc4OC23Oc2ccccc21`, the growth at 10 µM in experiment [7] was 77%.
In the case of `O=c1[nH]cc(F)c(=O)[nH]1` [FLUOROURACIL], the Activity in experiment [2] was found to be 6.91 um. Besides, the IC50 in experiment [6] stood at 15 µM. Moreover, the growth at 10 µM in experiment [7] amounted to 73.7%.
